The text below walks through data of patent publication US20120046321A1, “METHODS OF TREATING ATRIAL FIBRILLATION WITH P38 INHIBITOR COMPOUNDS” (INTERMUNE, INC., priority 2005, published 2012).

Entries after “also recorded” stand apart in the source; their conditions may differ.

Format in all cases: in vivo, canine
Assay [1] concerns connexin 43 (Cx43). The assay is described as follows: Immunofluorescent distribution of gap junction protein in LA. Conditions: CHF and CHF+PFD groups. On the procedure:
(§1) The distribution of gap junction proteins connexin 43 (Cx43) and connexin 40 (Cx40) in atrial tissue was also studied. Atrial specimens were incubated with mouse monoclonal antibody against Cx40 and rabbit polyclonal antibody against Cx43 (Dako) overnight at 4° C. Subsequently, incubation with FITC-labeled goat anti-rabbit (for Cx43) and Texas Red-labeled donkey anti-mouse (for Cx40) antibodies (Jackson ImmunoResearch Laboratories, West Grove, Pa.) was performed. The specimens were processed and analyzed with fluorescent microscopy.

In assay [2] the test system is connexin 40 (Cx40). The description is as above. Conditions: CHF and CHF+PFD groups. The method, then:
as §1

Assay [3] deals with canines with heart failure produced by 4 weeks of rapid ventricular pacing. In words: AF inducibility after PFD started once 4 weeks of rapid ventricular pacing ended (Example 7). Conditions: two canines, pacemakers turned off at 4 weeks, then PFD for 3 weeks. The method, then: AF inducibility was assessed by both the single-extrastimulus protocol (as above) and a burst pacing protocol which consisted of pacing at one LA site and one RA site. A total of 16 burst stimulations were carried out for each animal with each atrial site receiving 8 burst […] (4 for a duration of 6 seconds and 4 for 12 seconds) at a CL of 50 ms and a stimulus output of 0.5 V+twice diastolic threshold. AF was considered sustained if the induced episode lasted >[…] at which time the longest AF duration was taken as 3600 seconds and used for analysis. Two adult mongrel canines (weight 20 to 32 kgs) with heart failure produced by 4 weeks of rapid ventricular pacing as described above were evaluated for AF inducibility following PFD treatment. Briefly, pacemakers were turned off at 4 weeks and PFD started for 3 weeks. A follow-up study for AF inducibility after 3 weeks of PFD treatment was performed as described above.

Assay [4] relates to canines with ventricular tachypacing (VTP)-induced congestive heart failure (CHF). The assay is described as follows: Histologic study of atrial fibrosis (Sirius red). The source says: Briefly, 15 adult mongrel canines (weight 20 to 32 kgs) were divided into 3 groups (n=5 in each group) as follows: Group 1: Normal; Group 2: CHF canines not treated with PFD (or CHF); and Group 3: CHF canines treated with PFD (or CHF+PFD). […] The CHF and CHF+PFD canines underwent placement of a permanent single-chamber pacemaker with the pacing lead positioned in the right ventricular apex followed by radiofrequency catheter ablation of the AV junction to create complete heart block. Canines in the CHF and CHF+PFD groups underwent 3 weeks of VTP at a rate of 220 bpm. Oral PFD (800 mg three times a day) (InterMune, Brisbane, Calif.) was started 2 days prior to the initiation of VTP and was given for the full duration of the pacing period. At the conclusion of the EP study, the animals were euthanized. Atrial tissue samples were fixed in 10% neutral buffered formalin. The samples were processed, embedded in paraffin, and sectioned into 4- to 5-μm-thick sections. The sections were stained in either H&E, Masson's trichrome, or Sirius red. […] To quantify fibrosis, the red pixel content of digitized images (Sirius red-stained) was measured relative to the total tissue area (red and green pixels) with the Adobe Photoshop 7.0 software package. Areas containing blood vessels and perivascular interstitial cells were excluded from fibrosis quantification. […]

Assay [5] concerns total extracellular signal-regulated protein kinase (ERK). In words: Western blot of atrial tissue. Conditions: CHF+PFD vs CHF. The method, then: (§2) Expression of MAPks in atrial tissue was evaluated using Western Blot analysis. Briefly, atrial tissue specimen containing an equal amount of total protein (10 μg) was electrophoresed on a 4-20% Tris-glycine gel and then transferred onto a nitrocellulose filter. Non-specific binding sites were blocked with 4% BSA, and the filter was incubated with diluted antibody and a matched secondary antibody (all antibodies were obtained from Chemicon, Temecular, Calif.). Protein bands were analyzed with an enhanced chemiluminescence detection method using horseradish peroxidase, based on the recommendations from the manufacturer (NEN Life Science, Boston, Mass.).

The test system of assay [6] is total p-38. The assay is described as follows: Western blot of atrial tissue. Conditions: CHF+PFD vs CHF. On the procedure:
as §2
For orientation: Immunoblotting shows a protein as a band on a membrane.

The test system of assay [7] is total c-Jun N-terminal kinase (JNK). In words: Western blot of atrial tissue. Conditions: CHF+PFD vs CHF. On the procedure:
as §2

The subject of assay [8] is TNF-α. In words: Western blot of atrial tissue. Conditions: 3 groups.
In assay [9] the test system is TGF-β1. The assay is described as follows: Western blot of atrial tissue. Conditions: CHF+PFD vs CHF.
Assay [10] deals with matrix metalloproteinase (MMP)-9. The assay is described as follows: Western blot of atrial tissue. Conditions: active form 88 kDa, CHF+PFD vs CHF.
In assay [11] the test system is IL-10. In words: Western blot of atrial tissue. Conditions: 3 groups.

For the compound `Cc1ccc(=O)n(-c2ccccc2)c1` [PFD, 5-methyl-1-phenyl-2-(1H)-pyridone], the “Spatial distribution of Cx43 in LA, treated vs untreated” value in [1] was “did not appear markedly different”. The “Spatial distribution of Cx40 in LA, treated vs untreated” value in [2] is recorded as “did not appear markedly different”. The “AF inducibility after 3 weeks of PFD treatment” value in [3] is on record as “AF was not found”. Besides, the “LA interstitial fibrosis, histologic finding” value in assay [4] (Sirius red stained LA sections) is on record as “significant attenuation”. The “Percentage LA fibrosis” value in assay [4] (Sirius red, p<0.002 vs. CHF group (15.4±2.3%), Normals 3.2±1.0%) amounted to 8.3±3.0%. The “Expression of total ERK” value in [5] is reported as “downregulation; also recorded: reduced”. Also, the “Expression of total p-38” value in assay [6] is “downregulation; also recorded: reduced”. Moreover, the “Expression of total JNK (c-Jun)” value in assay [7] is “downregulation; also recorded: reduced”. Moreover, the “Expression of TNF-α” value in [8] was “unchanged; also recorded: not markedly different”. Further, the “Expression of TGF-β1” value in assay [9] is given as “downregulation; also recorded: reduced”. Besides, in assay [10], the “Expression of MMP-9” value is listed as “downregulation; also recorded: reduced”. Further, in assay [11], the “Expression of IL-10” value was “unchanged; also recorded: not markedly different”.
